Assay results reported in the supplement of paper PMC10307832.

Key:
Assay in all cases: relative viability (nuclei count vs DMSO), 5 days (fraction); higher = more cells survive
Alisertib + Palbociclib = compound: COc1cc(Nc2ncc3c(n2)-c2ccc(Cl)cc2C(c2c(F)cccc2OC)=NC3)ccc1C(=O)O [Alisertib] + CC(=O)c1c(C)c2cnc(Nc3ccc(N4CCNCC4)cn3)nc2n(C2CCCC2)c1=O [Palbociclib] (partner 0.5 µM)
Procedure, shortened: (§1)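 For relative viability, nuclei counts in treated wells were divided by those in vehicle wells. Lung cancer cell lines had been pin-tool dosed in 1536-well plates the day after seeding and cultured for 5 days, then fixed and stained in one step (final 0.05% Triton X-100, 1% formaldehyde, 1 ug/ml Hoechst) and imaged at 4×. Doses were one drug alone or a fixed anchor-drug dose plus five library-drug doses (not always all listed) in √10 steps, and values are duplicate-plate medians.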

Alisertib + Alpelisib = compound: COc1cc(Nc2ncc3c(n2)-c2ccc(Cl)cc2C(c2c(F)cccc2OC)=NC3)ccc1C(=O)O [Alisertib] + Cc1nc(NC(=O)N2CCC[C@H]2C(N)=O)sc1-c1ccnc(C(C)(C)C(F)(F)F)c1 [Alpelisib] (partner 2 µM)
Procedure, shortened: as §1

Alisertib + Pemetrexed = compound: COc1cc(Nc2ncc3c(n2)-c2ccc(Cl)cc2C(c2c(F)cccc2OC)=NC3)ccc1C(=O)O [Alisertib] + Nc1nc2[nH]cc(CCc3ccc(C(=O)N[C@@H](CCC(=O)O)C(=O)O)cc3)c2c(=O)[nH]1 [Pemetrexed] (partner 0.2 µM)
Procedure, shortened: as §1

Alisertib + Olaparib = compound: COc1cc(Nc2ncc3c(n2)-c2ccc(Cl)cc2C(c2c(F)cccc2OC)=NC3)ccc1C(=O)O [Alisertib] + O=C(c1cc(Cc2n[nH]c(=O)c3ccccc23)ccc1F)N1CCN(C(=O)C2CC2)CC1 [Olaparib] (partner 8 µM)
Procedure, shortened: as §1

Cell Line	relative viability (Alisertib + Palbociclib; first compound 0.005 µM)	relative viability (Alisertib + Palbociclib; first compound 0.01581 µM)	relative viability (Alisertib + Palbociclib; first compound 0.05 µM)	relative viability (Alisertib + Palbociclib; first compound 0.1581 µM)	relative viability (Alisertib + Palbociclib; first compound 0.5 µM)	relative viability (Alisertib + Alpelisib; first compound 0.005 µM)	relative viability (Alisertib + Alpelisib; first compound 0.01581 µM)	relative viability (Alisertib + Alpelisib; first compound 0.05 µM)	relative viability (Alisertib + Alpelisib; first compound 0.1581 µM)	relative viability (Alisertib + Alpelisib; first compound 0.5 µM)	relative viability (Alisertib + Pemetrexed; first compound 0.005 µM)	relative viability (Alisertib + Pemetrexed; first compound 0.01581 µM)	relative viability (Alisertib + Pemetrexed; first compound 0.05 µM)	relative viability (Alisertib + Pemetrexed; first compound 0.1581 µM)	relative viability (Alisertib + Pemetrexed; first compound 0.5 µM)	relative viability (Alisertib + Olaparib; first compound 0.005 µM)	relative viability (Alisertib + Olaparib; first compound 0.01581 µM)	relative viability (Alisertib + Olaparib; first compound 0.05 µM)	relative viability (Alisertib + Olaparib; first compound 0.1581 µM)	relative viability (Alisertib + Olaparib; first compound 0.5 µM)
RERF-LC-KJ	1.07	0.834	0.601	0.275	0.246	0.819	0.823	0.622	0.283	0.196	0.441	0.466	0.415	0.273	0.216	0.883	0.687	0.25	0.223	0.251
SK-LU-1	0.395	0.364	0.22	0.242	0.236	0.929	0.458	0.286	0.302	0.247	0.972	0.722	0.405	0.333	0.267	0.437	0.447	0.344	0.247	0.183
SK-MES-1	0.316	0.346	0.29	0.226	0.161	0.681	0.717	0.341	0.172	0.139	0.904	0.787	0.661	0.442	0.191	0.594	0.614	0.351	0.192	0.168
SW 1573	0.304	0.27	0.152	0.134	0.117	0.768	0.798	0.455	0.272	0.171	0.781	0.767	0.269	0.21	0.114	0.486	0.294	0.209	0.136	0.115
UMC-11	0.331	0.289	0.248	0.223	0.275	0.736	0.194	0.137	0.135	0.103	0.602	0.26	0.196	0.18	0.175	0.287	0.216	0.193	0.252	0.215
